Source: patent US20080305500A1, “NOVEL CELL-BASED ASSAYS FOR IDENTIFYING ENHANCERS OR INHIBITORS OF T1R TASTE RECEPTORS (T1R2/T1R3 SWEET) AND UMAMI (T1R1/T1R3 UMAMI) TASTE RECEPTORS” (Senomyx, Inc., priority 2007, published 2008)
Where two headings read alike, the source gives them in different places.

Target: T1, human sweet receptor (T1R2 and T1R3) (Homo sapiens, UniProt Q7RTX0+Q8TE23)
T1 construct: expressed in transfected cells; host or cells: HEK293 cells co-expressing Galpha15
T1 sequence (Q8TE23 20-839): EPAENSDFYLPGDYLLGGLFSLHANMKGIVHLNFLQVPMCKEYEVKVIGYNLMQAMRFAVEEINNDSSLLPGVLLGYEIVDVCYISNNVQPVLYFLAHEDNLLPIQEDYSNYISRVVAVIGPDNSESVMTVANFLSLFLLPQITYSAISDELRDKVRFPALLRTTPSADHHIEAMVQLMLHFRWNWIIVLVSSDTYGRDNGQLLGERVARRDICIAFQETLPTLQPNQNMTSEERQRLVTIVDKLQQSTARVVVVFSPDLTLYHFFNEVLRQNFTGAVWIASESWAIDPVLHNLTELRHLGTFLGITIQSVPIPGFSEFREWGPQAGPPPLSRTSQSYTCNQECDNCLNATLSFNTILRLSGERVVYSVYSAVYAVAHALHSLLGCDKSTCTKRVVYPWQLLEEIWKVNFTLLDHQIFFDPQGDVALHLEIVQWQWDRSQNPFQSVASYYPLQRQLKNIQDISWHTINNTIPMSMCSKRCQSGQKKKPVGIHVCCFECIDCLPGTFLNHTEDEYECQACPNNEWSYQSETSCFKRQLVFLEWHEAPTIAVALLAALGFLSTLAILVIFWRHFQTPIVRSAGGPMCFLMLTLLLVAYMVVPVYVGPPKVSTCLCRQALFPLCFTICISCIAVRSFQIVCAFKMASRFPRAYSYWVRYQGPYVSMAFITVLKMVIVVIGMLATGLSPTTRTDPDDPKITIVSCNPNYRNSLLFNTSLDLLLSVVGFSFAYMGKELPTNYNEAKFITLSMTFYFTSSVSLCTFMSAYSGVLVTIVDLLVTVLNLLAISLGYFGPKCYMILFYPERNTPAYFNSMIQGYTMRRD
T1 sequence (Q7RTX0 21-852): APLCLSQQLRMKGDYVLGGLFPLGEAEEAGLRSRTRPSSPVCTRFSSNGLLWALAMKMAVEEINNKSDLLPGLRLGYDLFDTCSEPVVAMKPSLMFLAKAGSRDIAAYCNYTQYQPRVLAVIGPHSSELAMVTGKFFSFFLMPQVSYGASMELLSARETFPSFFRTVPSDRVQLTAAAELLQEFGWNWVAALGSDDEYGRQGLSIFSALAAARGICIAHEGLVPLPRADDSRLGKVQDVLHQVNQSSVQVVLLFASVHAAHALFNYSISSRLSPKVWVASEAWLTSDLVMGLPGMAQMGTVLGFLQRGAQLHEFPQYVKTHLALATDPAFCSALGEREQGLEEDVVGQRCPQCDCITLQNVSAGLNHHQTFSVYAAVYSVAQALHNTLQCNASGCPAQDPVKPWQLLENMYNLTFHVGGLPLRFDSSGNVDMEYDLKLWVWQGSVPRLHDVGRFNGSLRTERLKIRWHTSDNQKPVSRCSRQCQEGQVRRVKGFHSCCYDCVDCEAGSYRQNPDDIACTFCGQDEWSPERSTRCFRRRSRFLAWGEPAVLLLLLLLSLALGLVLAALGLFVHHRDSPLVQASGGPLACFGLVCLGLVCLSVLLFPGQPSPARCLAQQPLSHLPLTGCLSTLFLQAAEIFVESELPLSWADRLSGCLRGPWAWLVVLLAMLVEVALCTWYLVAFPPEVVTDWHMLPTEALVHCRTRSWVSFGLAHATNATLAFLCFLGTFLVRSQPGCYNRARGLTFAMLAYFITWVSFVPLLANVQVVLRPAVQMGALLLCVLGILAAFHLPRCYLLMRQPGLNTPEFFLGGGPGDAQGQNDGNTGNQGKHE
Assay: Calcium imaging (Fluo3AM/FLIPR) sweet receptor enhancer assay in hT1R2/hT1R3-HEK293 Galpha15 cells, with pre-incubation step
Assay type: cell-based
Conditions: read-out: potency of Sucralose (dose-response)
Protocol: In the subject assays the receptor or cells expressing same will be placed in a suitable environment that facilitates the receptor or cells to be used in the particular assay. For instance, in the exemplified calcium imaging assays cells which express hT1R2/hT1R3-HEK293 G[…]15 cells were seeded in 384-well-clear bottom plates (Fisher) at a density of ˜50,000 cells/well and grown overnight at 37 degrees C. However, it is anticipated that these cell density conditions and/or cell culture devices potentially may be altered.
On the day of the experiment, cells were loaded with a commercially available calcium indicator dye Fluo3AM (2 uM) (Invitrogen) in D-PBS (Invitrogen) using a Multidrop (Titertek). (Again while Fluo3AM is exemplified it is anticipated that other known and available calcium indicators can be substituted therefore). […] After 30 minutes of rest time at room temperature, Fluo3AM-loaded cell plate, a compound plate and a sweetener plate were loaded into a Fluorometric Imaging Plate Reader (FLIPR, Molecular Devices). […] Imaging was initiated with the acquisition of the baseline fluorescence for a period of 7 to 10 seconds, and then cells were stimulated on line with addition of 25 µl/well of the compound plate (pre-incubation step). […]

An EC50 (cells pre-incubated with S2423 (50 uM or 25 uM final)) of 11 µM and an EC50 (without S2423) of 53 µM were found for `OC[C@H]1O[C@H](O[C@]2(CCl)O[C@H](CCl)[C@@H](O)[C@@H]2O)[C@H](O)[C@@H](O)[C@H]1Cl` [Sucralose] in this work.
